Tests used:
Assay in all cases: In vitro antibacterial evaluation: minimum inhibitory concentration (MIC), broth dilution method
Assay type in all cases: cell-based
Conditions in all cases: 18 hours at 35° C.
Enterococcus sp. = system: Enterococcus sp.
Summary of the method: (§1)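 An MIC is reported for each organism as the least concentration giving inhibition, using broth dilution over 64-0.06 μg/mL with a 5×10^5 CFU/mL inoculum.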

Escherichia coli = system: Escherichia coli
Summary of the method: as §1

Staphylococcus sp. = system: Staphylococcus sp.
Summary of the method: as §1

Streptococcus sp. = system: Streptococcus sp.
Summary of the method: as §1

α-O-[(Dodecylanaino)carbonyl]-cyclo[glycyl-β-methylphenylalanyl-O-(4-O-hexopyranosylhexopyranosyl)tyrosyl-3-(2-iminoimidazolidin-4-yl)seryl-3-(3-hexopyranosyl-2-iminoimidazoliclin-4-yl)serylseryl] [Example 254]
MIC Enterococcus avium (GC 4558) (Enterococcus sp.; Enterococcus avium (GC 4558)): 4 µg/mL | MIC Enterococcus faecalis (ATCC 29212) (Enterococcus sp.; Enterococcus faecalis (ATCC 29212)): 8 µg/mL | MIC Enterococcus faecalis (GC 2242) (Enterococcus sp.; Enterococcus faecalis (GC 2242)): 8 µg/mL | MIC Enterococcus faecalis (GC 4552) (Enterococcus sp.; Enterococcus faecalis (GC 4552)): 8 µg/mL | MIC Enterococcus faecalis (GC 4553) (Enterococcus sp.; Enterococcus faecalis (GC 4553)): 4 µg/mL | MIC Enterococcus faecalis (GC 4554) (Enterococcus sp.; Enterococcus faecalis (GC 4554)): 8 µg/mL | MIC Enterococcus faecium (GC 2243) (Enterococcus sp.; Enterococcus faecium (GC 2243)): 4 µg/mL | MIC Enterococcus faecium (GC 4556) (Enterococcus sp.; Enterococcus faecium (GC 4556)): 8 µg/mL | MIC Enterococcus faecium (GC 4557) (Enterococcus sp.; Enterococcus faecium (GC 4557)): 2 µg/mL | MIC Enterococcus faecalis (ATCC 29212) (Enterococcus sp.; broth dilution, strain ATCC 29212): 8 µg/mL | MIC Enterococcus faecalis (GC 2242) (Enterococcus sp.; broth dilution, strain GC 2242): 8 µg/mL | MIC Enterococcus faecium (GC 2243) (Enterococcus sp.; broth dilution, strain GC 2243): 4 µg/mL | MIC Enterococcus faecalis (GC 4552) (Enterococcus sp.; broth dilution, strain GC 4552): 8 µg/mL | MIC Enterococcus faecalis (GC 4553) (Enterococcus sp.; broth dilution, strain GC 4553): 4 µg/mL | MIC Enterococcus faecalis (GC 4554) (Enterococcus sp.; broth dilution, strain GC 4554): 8 µg/mL | MIC Enterococcus faecium (GC 4556) (Enterococcus sp.; broth dilution, strain GC 4556): 8 µg/mL | MIC Enterococcus faecium (GC 4557) (Enterococcus sp.; broth dilution, strain GC 4557): 2 µg/mL | MIC Enterococcus avium (GC 4558) (Enterococcus sp.; broth dilution, strain GC 4558): 4 µg/mL | MIC Escherichia coli (ATCC 25922) (Escherichia coli; Escherichia coli (ATCC 25922)): 64 µg/mL | MIC Escherichia coli (GC 4559) (Escherichia coli; Escherichia coli (GC 4559)): 8 µg/mL | MIC Escherichia coli (GC 4560) (Escherichia coli; Escherichia coli (GC 4560)): 4 µg/mL | MIC Coagulase Negative Staphylococcus (GC 4547) (Staphylococcus sp.; Coagulase Negative Staphylococcus (GC 4547)): 4 µg/mL | MIC Coagulase Negative Staphylococcus (GC 4548) (Staphylococcus sp.; Coagulase Negative Staphylococcus (GC 4548)): 4 µg/mL | MIC Coagulase Negative Staphylococcus (GC 4549) (Staphylococcus sp.; Coagulase Negative Staphylococcus (GC 4549)): 2 µg/mL | MIC Coagulase Negative Staphylococcus (GC 4551) (Staphylococcus sp.; Coagulase Negative Staphylococcus (GC 4551)): 4 µg/mL | MIC Coagulase Negative Staphylococcus (ID-3941) (Staphylococcus sp.; Coagulase Negative Staphylococcus (ID-3941)): 2 µg/mL | MIC Staphylococcus aureus (ATCC 29213) (Staphylococcus sp.; Staphylococcus aureus (ATCC 29213)): 4 µg/mL | MIC Staphylococcus aureus (GC 1131) (Staphylococcus sp.; Staphylococcus aureus (GC 1131)): 4 µg/mL | MIC Staphylococcus aureus (GC 4541) (Staphylococcus sp.; Staphylococcus aureus (GC 4541)): 4 µg/mL | MIC Staphylococcus aureus (GC 4542) (Staphylococcus sp.; Staphylococcus aureus (GC 4542)): 4 µg/mL | MIC Staphylococcus aureus (GC 4544) (Staphylococcus sp.; Staphylococcus aureus (GC 4544)): 4 µg/mL | MIC Staphylococcus aureus (GC 4545) (Staphylococcus sp.; Staphylococcus aureus (GC 4545)): 8 µg/mL | MIC Staphylococcus aureus-SMITH (GC 4543) (Staphylococcus sp.; Staphylococcus aureus-SMITH (GC 4543)): 4 µg/mL | MIC Staphylococcus haemolyticus (GC 4546) (Staphylococcus sp.; Staphylococcus haemolyticus (GC 4546)): 4 µg/mL | MIC Staphylococcus aureus (ATCC 29213) (Staphylococcus sp.; broth dilution, strain ATCC 29213): 4 µg/mL | MIC Staphylococcus aureus (GC 1131) (Staphylococcus sp.; broth dilution, strain GC 1131): 4 µg/mL | MIC Staphylococcus aureus (GC 4541) (Staphylococcus sp.; broth dilution, strain GC 4541): 4 µg/mL | MIC Staphylococcus aureus (GC 4542) (Staphylococcus sp.; broth dilution, strain GC 4542): 4 µg/mL | MIC Staphylococcus aureus-SMITH (GC 4543) (Staphylococcus sp.; broth dilution, strain GC 4543): 4 µg/mL | MIC Staphylococcus aureus (GC 4544) (Staphylococcus sp.; broth dilution, strain GC 4544): 4 µg/mL | MIC Staphylococcus aureus (GC 4545) (Staphylococcus sp.; broth dilution, strain GC 4545): 8 µg/mL | MIC Staphylococcus haemolyticus (GC 4546) (Staphylococcus sp.; broth dilution, strain GC 4546): 4 µg/mL | MIC Coagulase Negative Staphylococcus (GC 4547) (Staphylococcus sp.; broth dilution, strain GC 4547): 4 µg/mL | MIC Coagulase Negative Staphylococcus (GC 4548) (Staphylococcus sp.; broth dilution, strain GC 4548): 4 µg/mL | MIC Coagulase Negative Staphylococcus (GC 4549) (Staphylococcus sp.; broth dilution, strain GC 4549): 2 µg/mL | MIC Coagulase Negative Staphylococcus (GC 4551) (Staphylococcus sp.; broth dilution, strain GC 4551): 4 µg/mL | MIC Coagulase Negative Staphylococcus (ID-3941) (Staphylococcus sp.; broth dilution, strain ID-3941): 2 µg/mL | MIC Streptococcus agalactiae (GC 4564) (Streptococcus sp.; Streptococcus agalactiae (GC 4564)): 4 µg/mL | MIC Streptococcus pneumoniae (GC 4565) (Streptococcus sp.; Streptococcus pneumoniae (GC 4565)): 16 µg/mL | MIC Streptococcus pyogenes (ID-3187) (Streptococcus sp.; Streptococcus pyogenes (ID-3187)): 8 µg/mL | MIC Streptococcus agalactiae (GC 4564) (Streptococcus sp.; broth dilution, strain GC 4564): 4 µg/mL | MIC Streptococcus pneumoniae (GC 4565) (Streptococcus sp.; broth dilution, strain GC 4565): 16 µg/mL | MIC Streptococcus pyogenes (ID-3187) (Streptococcus sp.; broth dilution, strain ID-3187): 8 µg/mL
